These results are taken from US20230202981A1, “NOVEL SMALL MOLECULES FOR TARGETED DEGRADATION OF UNTARGETABLE KRAS IN CANCER THERAPY” (Pillai Universal LLC, priority 2020, published 2023).

Molecules are shown by their SMILES.

Series [1] is described as follows: Pharmacokinetics in rats. It is filed as in vivo.
Series [2] concerns KRAS mutant cell lines. Nature of the series: Apoptosis by Annexin V-FITC/PI staining and flow cytometry. Format: cell-based. Conditions: mutant cancer cells, 24 h. The protocol: FIG. 6 depicts the compound I induces apoptosis in KRAS-dependent cancer cell line • FIG. 6(A)—Morphological changes after 24 h exposure to compound I ([…]) were captured by an Epifluroscent microscope with ×100 magnification, scale bar: 20 μm. • FIG. 6(B)—Cells were treated with 250 nm of Compound I for 24 h and apoptosis levels were quantitatively measured with flow cytometry after staining cells with Annexin V/propidium iodide (PI), and triplicate data were plotted as bar chart diagram. • FIG. 6(C)—Representative western blot data of different apoptosis-related protein (PARP, Bcl-2, and Bax) confirmed induction of cellular apoptosis after treatment ([…]) for 24 h. […]
Compound 1 was subjected to cancer induced model and determined whether the observed growth inhibition was due to apoptosis or necrosis. […] Next, applying standard Annex in V-FITC/PI staining followed by flow cytometry analysis, the percentage of apoptotic and necrotic cells were quantitatively measured. […] Furthermore, to examine compound-induced apoptosis in KRAS mutant cells, the expression levels of several well-characterized apoptotic proteins were analyzed by western blotting. […] The densitometry quantitation of the ratio of Bax/Bcl2 protein expression and PARP cleavage relative to GAPHD is shown as a bar chart in […].

Series [3] has as its system drug-sensitive EGFR mutations, and EGFR C797S mutations. The series is described as follows: Enzyme activity of EGFR family members. Format: biochemical. The source says:
(§1) The activity of Compound 1 on various mutated EGFRs, HER2, and HER4 were examined. MTT assays, flow cytometry, and Western blotting were used to examine the effects of Compound 1 on with different genetic characteristics and relevant molecular mechanisms. Nude mouse xenograft models with cells were used to evaluate the in vim anti-tumor activity of Compound 1. […] Compound 1 blocked EGFR phosphorylation, thereby down regulating downstream PI3/AKT and MAPK/ERK signaling pathways and inducing G0/G1 arrest in different cells. […] Due to compromised homologous recombination (HR) repair, BRCA 1-and BRCA 2-mutated tumours accumulate DNA damage and genomic rearrangements conducive of tumour progression.

The target of series [4] is wild-type (WT) HER2 (Homo sapiens, UniProt P04626). The series is described as follows: Enzyme activity of EGFR family members. It is filed as biochemical.
Source text: as §1

Chain of wild-type (WT) HER2 (P04626 23-1255): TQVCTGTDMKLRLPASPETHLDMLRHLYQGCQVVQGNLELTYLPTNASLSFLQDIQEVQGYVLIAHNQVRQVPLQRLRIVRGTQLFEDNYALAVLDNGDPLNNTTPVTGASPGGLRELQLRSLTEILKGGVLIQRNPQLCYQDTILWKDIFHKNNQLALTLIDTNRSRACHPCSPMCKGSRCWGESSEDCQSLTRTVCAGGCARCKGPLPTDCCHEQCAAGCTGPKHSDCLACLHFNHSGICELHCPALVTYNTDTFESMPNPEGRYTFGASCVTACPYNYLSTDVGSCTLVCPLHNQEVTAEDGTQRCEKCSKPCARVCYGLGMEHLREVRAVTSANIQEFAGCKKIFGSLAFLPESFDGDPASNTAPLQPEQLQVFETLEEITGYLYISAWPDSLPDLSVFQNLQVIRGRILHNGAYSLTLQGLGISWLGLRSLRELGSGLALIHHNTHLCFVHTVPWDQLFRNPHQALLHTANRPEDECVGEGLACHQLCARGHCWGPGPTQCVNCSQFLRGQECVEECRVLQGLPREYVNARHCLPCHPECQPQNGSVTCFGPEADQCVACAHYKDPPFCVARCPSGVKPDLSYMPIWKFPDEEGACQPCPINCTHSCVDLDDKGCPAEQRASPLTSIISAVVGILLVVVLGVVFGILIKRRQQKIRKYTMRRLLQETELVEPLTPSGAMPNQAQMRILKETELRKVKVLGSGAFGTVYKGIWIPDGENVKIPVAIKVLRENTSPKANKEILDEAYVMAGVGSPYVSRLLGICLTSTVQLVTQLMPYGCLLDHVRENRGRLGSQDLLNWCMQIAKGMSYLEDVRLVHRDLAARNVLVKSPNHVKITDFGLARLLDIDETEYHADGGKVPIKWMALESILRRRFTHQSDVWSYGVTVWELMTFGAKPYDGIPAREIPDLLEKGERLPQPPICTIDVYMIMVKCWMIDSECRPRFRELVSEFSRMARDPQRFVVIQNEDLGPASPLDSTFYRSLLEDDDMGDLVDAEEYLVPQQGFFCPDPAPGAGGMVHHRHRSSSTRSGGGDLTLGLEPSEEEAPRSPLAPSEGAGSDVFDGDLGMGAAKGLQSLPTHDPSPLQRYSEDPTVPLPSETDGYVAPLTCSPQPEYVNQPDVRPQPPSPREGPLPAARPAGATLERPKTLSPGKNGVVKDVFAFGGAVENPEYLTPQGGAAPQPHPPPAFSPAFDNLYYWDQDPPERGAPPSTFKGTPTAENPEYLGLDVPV

With `CCCCc1ncc(C(=O)C2CC=C(C(N)=O)N2)cc1C(=O)OCC` (stereo not drawn) [Compound 1], in series [1] (rat, 10 mg/kg b.wt), the Cmax entry was “Cmax = 1.9 μg/mL (10 mg/kg b.wt rat)”. Also, the T1/2 result in series [1] (rats) was “T1/2 = 9.8 h (rats)”. Further, in series [1] (rats, 10 mg/kg b.wt), the T max result is reported as “T max = 2 h (rats, 10 mg/kg, b.wt; )”. Further, the “apoptosis compared with the untreated cells” value in series [2] is reported as “significantly induced apoptosis”. For the same compound, the “enzyme activity of mutated EGFR” value in series [3] was “effectively inhibited the enzyme activity”. Further, in series [4], the “enzyme activity of HER2” value is listed as “effectively inhibited the enzyme activity”.
